Experimental data published in US20230149421A1, “MEDICAMENT FOR PREVENTING OR TREATING IRRITABLE BOWEL SYNDROME OR INFLAMMATORY BOWEL DISEASE” (priority 2020, published 2023).

Key:
Format in all cases: in vivo, Sprague-Dawley rats
caspase-1 = assay: Caspase-1 expression in colonic tissue (western blotting), DNBS-induced colitis model; details: DNBS rats; 10 mg/kg oral
Protocol: (§1) The induction of colitis was performed according to the method in Antonioli L, et al. (Non Patent Literature 8). 15 mg of 2,4-dinitrobenzenesulfonic acid (DNBS) in 0.25 ml of 50% ethanol was rectally administered through a polyethylene PE-60 catheter inserted 8 cm proximal to the anus, during a short period of anesthesia by Isoflurane (manufactured by Abbott Laboratories). To the control rat, 0.25 ml of 50% ethanol was administered.
Sample preparation and a test method were performed by the same methods as those in Example 7.
Samples were prepared and a test was performed in the same manner as in Example 7, except that an anti-procaspase-1 antibody and an anti-caspase antibody (all ad1872, manufactured by Abcam plc., dilution 1: 1,000) were used as the antibodies, instead of the anti-occludin antibody.
Sample preparation and a test method were performed by the same methods as those in Example 8.

[1] = system: DNBS-induced colitis model; assay: Microscopic (histological) damage score of colonic tissue in DNBS-induced colitis model; details: DNBS rats, 6 days; for histological damage in colonic tissues compared to DNBS-induced colitis model: test compound groups (3, 10, 30 mg/kg) oral
Protocol: as §1
(§2) The DNBS-induced colitis model and the control rats were euthanized in a CO2 chamber. After death, mid-abdominal incision was performed, and the colon was excised, which was then opened in a longitudinal direction (longitudinal muscle direction), washed with sterile physiological saline, and split into two parts in the longitudinal direction.
Evaluation of microscopic damage and inflammation was performed with an optical microscope using a tissue section obtained from a specimen of the entire intestine and stained with hematoxylin/eosin. Evaluation of severity of enteritis was performed by scoring the microscopic damage (histological damage) of the samples. As described above, colonic tissues that had been excised and washed with physiological saline were used as the samples.
The scoring was performed according to the criteria determined by making a minor amendment on the criteria reported in Non Patent Literature 11 (Non Patent Literature 12). The microscopic scoring (scoring of histological damage) criteria for the colonic damage are as shown in the following (1) to (5) (Non Patent Literatures 8 to 10), and the total points in (1) to (5) are used as a score.
(1) Loss of mucosal structure (no loss of mucosal structure: 0 points and mild to severe loss of mucosal structure: 1 to 3 points)
(2) Cellular infiltration (no cellular infiltration: 0 points and mild to severe cellular infiltration: 1 to 3 points)
(3) Muscle thickening (no muscle thickening: 0 points and mild to severe muscle thickening: 1 to 3 points) (4) Crypt abscess (none: 0 points and present: 1 point)
(5) Reduction in goblet cells (not reduced: 0 points and reduced: 1 point) […]

occludin = assay: Occludin expression in colonic tissue (western blotting), DNBS-induced colitis model; details: DNBS rats; 10 mg/kg oral
[2] = system: DNBS-induced colitis model; assay: Macroscopic damage score of colonic tissue in DNBS-induced colitis model; details: DNBS rats, 6 days
Protocol: as §1, §2
Evaluation was performed by scoring the macroscopic damage of the samples. As described above, colonic tissues that had been excised and washed with physiological saline were used as the samples.
The scoring was performed according to the criteria determined by making a minor amendment on the criteria reported in Non Patent Literature 11 (Non Patent Literature 12). […]
(4) Thickness (mm) of colonic tissue (colonic wall): 1 point was scored for 1 mm […]

[3] = system: DNBS-induced colitis model; assay: Change in body weight and spleen weight in DNBS-induced colitis model; details: DNBS rats; for change in body weights: 3, 10 and 30 mg/kg oral immediately after DNBS, 6 days; for spleen weights compared to DNBS-induced colitis model: test compound groups (3, 10, 30 mg/kg) oral
Protocol: Sprague-Dawley rats (body weights of 200 to 225 g) which were male albino rats were used as model animals. Three model animals were housed in one cage in a temperature-controlled environment at 22-24° C., 50-60% humidity, and a light cycle of 12 hours, were given ad libitum access to standard laboratory feed and tap water, and were not used for at least one week after being brought into the laboratory.
A model in which colitis was induced by 2,4-dinitrobenzenesulfonic acid (hereinafter, denoted as DNBS, manufactured by Sigma-Aldrich, Inc.) (in the present specification, referred to as a “DNBS-induced colitis model”) was prepared.
as §1
Food intake was monitored everyday since initiation of the drug therapy. Furthermore, body weights of the rats were measured every morning, and evidence of blood in diarrhea and a stool or rectal bleeding was examined during the experimental period.

Compound | caspase-1 expression in colon in which inflammation was induced (caspase-1) | microscopic score compared to DNBS-induced colitis model ([1]; 10 and 30 mg/kg oral) | histological damage in colonic tissues compared to DNBS-induced colitis model [1] | occludin expression in inflamed tissues compared to DNBS-induced colitis model (occludin) | macroscopic damage scores compared to DNBS-induced colitis model ([2]; 3, 10 and 30 mg/kg oral) | change in body weights [3] | spleen weights compared to DNBS-induced colitis model [3] | macroscopic damage scores compared to DNBS-induced colitis model ([2]; 10 and 30 mg/kg oral)
O=C1CC(=O)N(c2ccc(NC(=O)c3ccccc3I)cc2)c2ccc3ccccc3c2N1 [Compound B48, 5-[4-(2-iodobenzoylamino)phenyl]-1H-naphtho[1,2-b][1,4]diazepine-2,4(3H,5H)-dione] | decreased | significant improvement | decreased in a dose-dependent manner | increased | significant decrease | increase in body weights | significantly decreased | 
O=C1CC(=O)N(c2cccc(-c3noc(=S)[nH]3)c2)c2ccc3ccccc3c2N1.[Na] [Compound A17, 5-[3-(5-thioxo-4H-[1,2,4]oxadiazol-3-yl)phenyl]-1H-naphtho[1,2-b][1,4]diazepine-2,4(3H,5H)-dione sodium salt] | cannot be decreased |  | not affected | increased |  | increase in body weights | significantly decreased | significant decrease
